Consider 1 compound from patent US20140047572A1, “THROMBOPOIETIN MIMETICS FOR THE TREATMENT OF RADIATION OR CHEMICAL INDUCED BONE MARROW INJURY” (priority 2012, published 2014).

One assay concerns Mpl^hmMPL knock-in mice. Description: Survival of Mpl^hmMPL knock-in mice after lethal total body irradiation. In kind it is in vivo, mouse. Conditions: 8 Gy TBI, eltrombopag 50 mg/kg gavage daily for 15 days from 24 h after TBI, monitored 30 days. As for the experimental part:
FIG. 3 is a Kaplan-Meier survival curve showing survival of wildtype and Mpl^hmMPL knock-in mice after exposure to a non-therapeutic dose of radiation. Male Mpl^hmMPL knock-in mice received total body irradiation (TBI) of 8 Gy. Twenty-four hours after TBI, mice were gavaged daily with eltrombopag (50 mg/kg) for 15 days. Survival of mice was monitored twice daily for 30 days. Experiments were carried out with 8 homozygous Mpl^hmMPL knock-in mice, 10 heterozygous Mpl^hmMPL knock-in mice, and 10 wild type mice.
All mice received 8 Gy total body irradiation and were treated with eltrombopag 24 hours after irradiation. […] It is believed that eltrombopag facilitates bone marrow recovery after radiation injury to the hematopoietic system.

The next assay relates to Mpl^hExon10 KI mice. Description: Eltrombopag treatment of non-irradiated Mpl^hExon10 KI mice: platelet and bone marrow cell populations. The format is in vivo, mouse. Conditions: 25 mg/kg/day gavage 15 days, vs vehicle. As for the experimental part: Mpl^hExon10 KI mice (9 to 13 weeks old, male and female) were fed with 25 mg eltrombopag (ePag)/kg/day or vehicle by gavage for 15 days. Eltrombopag is a non-peptide mimetic of the TPO receptor. Mice were sacrificed on the 16th day for cell analysis.
To examine platelet levels, whole blood was obtained by heart puncture and CBC was done by Heska HemaTrue Hematology analyzer. Whole blood was also stained by anti CD41 and anti CD61 antibodies. The ratio of platelets to RBCs was measured by flow cytometry after whole blood was stained with anti-CD41 and anti-CD61 antibodies. The count of platelets was calculated by multiplying the ratio with the count of RBCs obtained by Heska HemaTrue Hematology Analyzer. The data is presented as mean±standard error of the mean.
To examine bone marrow cell populations, mice were sacrificed on day 16 and bone marrow cells were flushed out of the femur and tibia. RBCs were lysed by ACK buffer. The bone marrow mononuclear cells were stained with anti-CD41-PE and anti-CD42-APC. DAPI was added before flow cytometric analysis to gate away dead cells. The number of mice in each genotype is 5-7. All results are shown as the mean±standard error of the mean.
In a separate experiment, bone marrow mononuclear cells were stained with anti-lineages-PE (Gr-1, Mac-1, B220, Ter119, CD4 and CD8), anti-Sca-1 FITC, and anti-c-kit-APC. DAPI-pacific blue was added before flow cytometric analysis to eliminate dead cells. To analyze KSL (linage^−, c-kit^+, sca^+) population, live cells (DAPI-) are first gated, followed by gating the linage^− population and selecting c-kit^+/sca-1^+ population within the linage^− population.

Assay [1] concerns human c-mpl TM (exon 10) KI mice. Description: Survival of irradiated human c-mpl TM (exon 10) KI mice. To be noted: 7.75 Gy TBI; for survival after TBI: male mice, 12.5, 25 or 50 mg/kg daily gavage 15 days from 24 h after irradiation, vs vehicle. In kind it is in vivo, mouse. As for the experimental part:
Male Mpl^hExon10KI (human c-mpl TM knock-in mice) received 7.75 Gy TBI. Twenty-four hours after irradiation, mice were gavaged with either vehicle (0 mg/kg of eltrombopag) or one of the three doses of eltrombopag (12.5 mg/kg, 25 m g/kg, vs. 50 mg/kg daily for 15 days (n=8-10) for each experimental group.
A pilot radiation study of was performed using human c-mpl TM KI mice before completion of backcrossing to >95% C57B1. Male human c-mpl TM (exon 10) KI mice received 7.75 Gy TBI. Twenty-four hours after irradiation, mice were gavaged with either vehicle (0 mg/kg of eltrombopag) or one of the three doses of eltrombopag (12.5 mg/kg, 25 m g/kg, vs. 50 mg/kg daily for 15 days (n=8-10) for each experimental group.

Assay [2] concerns Human bone marrow mononuclear cells. Briefly: Megakaryocyte and CD41+CD34- cell differentiation in ex vivo human bone marrow culture in 3D bioreactor. The format is cell-based. Conditions: eltrombopag 8 μg/mL + IL11 vs TPO + IL11; non-irradiated control and irradiated cultures; 14 days. As for the experimental part: FIGS. 12A-D illustrate the effects of IL-11 only (middle/red bars) versus TPO+IL11 (left/blue bars) versus eltrombopag (8 μg/mL)+IL11 (right/green bars) on promoting megakaryocyte or CD41+CD34− cell differentiation in control and irradiated ex vivo human 3D bone marrow mononuclear cells. Cells were treated with TPO and IL11 (5 ng/mL each) for 6-7 days to induce megakaryocyte differentiation. Culture media was replaced with cultures containing IL-11 only, TPO+IL11, or eltrombopag+IL11 for the groups of control cultures (FIGS. 12A, 12C) and the group of irradiated cultures (FIGS. 12B, 12D). […]
Human bone marrow mononuclear cells were inoculated into the 6-well bioreactor as described above (3.5×10^6 cells in 0.6 mL). […] Cultures were screened weekly for cell viability (Trypan blue exclusion test) and for megakaryocytes production expressed as number of megakaryocytes per 1000 bone marrow cells on Wright stained cytospin slides.
Flow cytometry analysis of CD41+CD34− cells (marker for precursor/progenitor of thrombopoiesis) was also performed for megakaryocytes and progenitors as an additional experimental end-point. […] Cells were analyzed on FACS—Calibur Flow Cytometer (Becton-Dickinson, Rockville, Md.). CD41+CD34− cell population was gated as a subpopulation of all living cells analyzed. […]

For assay [3], the system named is TM KI homozygote mutant mice. Briefly: Blood cell recovery in irradiated human c-Mpl TM (exon 10) KI mice. In kind it is in vivo, mouse. To be noted: 6.5 Gy TBI, 25 mg/kg/day oral gavage from 24 h post IR, vs vehicle. As for the experimental part: TM KI homozygote mutant mice (11 weeks old, male and female) were treated with 6.5 Gy TBI and at 24 hr post IR fed with 25 mg ePag/kg/day or vehicle by oral gavage daily for 28 days or till sacrificed. Mice were sacrificed on the day specified. Whole blood was obtained by heart puncture and CBC was done by Heska HemaTrue Hematology analyzer. Whole blood was also stained by anti CD41 and anti CD61 antibodies. BM was extracted and stained with mCD41 and mCD42d for flow cytometry analysis of […] cells (markers for precursor and progenitors for thrombopoiesis).
The ratio of platelets to RBCs was measured by flow cytometry after whole blood was stained with anti-CD41 and anti-CD61 antibodies. The count of platelets was calculated by multiplying the ratio with the count of RBCs obtained by Heska HemaTrue Hematology Analyzer. Week 0 is normal mice without IR and gavage.

The next assay has as its system TPO receptors. To be noted: depends on His 499 in the transmembrane portion; cited from earlier work.

Regarding `CC1=NN(c2ccc(C)c(C)c2)C(=O)/C1=N\Nc1cccc(-c2cccc(C(=O)O)c2)c1O` [eltrombopag, (Z)-3′-(2-(1-(3,4-dimethylphenyl)-3-methyl-5-oxo-1H-pyrazol-4(5H)-ylidene)hydrazinyl)-2′-hydroxybiphenyl-3-carboxylic acid], in the assay with Mpl^hmMPL knock-in mice (heterozygous vs wild type), the “survival after lethal total body irradiation, heterozygous Mpl^hmMPL knock-in mice” value is on record as “survived longer than the wild type”. Also, in the assay with Mpl^hmMPL knock-in mice (homozygous vs heterozygous), the “survival after lethal total body irradiation, homozygous Mpl^hmMPL knock-in mice” value is given as “survived longer than the heterozygous transgenic mice”. Also, the “bone marrow Lin-KSL (stem) cells” value in the assay with Mpl^hExon10 KI mice (Mpl^hExon10 KI mice) is “significantly increased”. The “bone marrow CD41+CD42+ cells” value with Mpl^hExon10 KI mice (homozygous Mpl^hExon10 KI mice, day 16) was “significantly increased”. The “platelet counts in the peripheral blood” value with Mpl^hExon10 KI mice (homozygous Mpl^hExon10 KI mice, day 16, 25 mg/kg/day) is recorded as “significantly increased the platelet counts”. Also, in assay [1] (25 and 50 mg/kg vs 12.5 mg/kg daily for 15 days), the “survival after TBI, dose dependence” value is “higher doses (25 mg/kg and 50 mg/kg) yielded better survival”. Moreover, in assay [1], the “survival after TBI” value was “improves survival”. The “survival after TBI” value in assay [1] (listed as Eltrombopag) is listed as “improved the survival of mice”. Moreover, in assay [2], the “CD41+CD34- cells (precursors/progenitors for thrombopoiesis)” value is listed as “performed as well as TPO” and the “megakaryocytes (number per 1000 bone marrow cells)” value is recorded as “performed as well as TPO in promoting megakaryocytes”. In addition, in assay [3] (2 weeks post IR), the “red blood cell counts” value was “an improvement”. In addition, in assay [3] (4 and 6 weeks post IR), the platelet counts result is reported as “significant improvement”. Further, the “count of bone marrow precursor/progenitor cells for thrombopoiesis” value in assay [3] (4 weeks post IR) is reported as “significant improvement”. For the same compound, the “white blood cell counts” value in assay [3] (6 weeks post IR) is listed as “significant improvement”. Besides, the “species-specificity of TPO receptor binding” value with TPO receptors is “binds to the TPO receptors of only humans and chimpanzees”.
